# Test results taken from patent US10765114B2, “4-amino-6-(pyridyl and 2-substitutedphenyl)-picolinates and 6-amino-2-(pyridyl and 2-substitutedphenyl)-pyrimidine-4-carboxylates and their use as herbicides” (Dow AgroSciences LLC, priority 2013, dated 2020).
# System: Key Grass and Sedge Weeds as well as Grass Crops
# Test: Post-Emergent Test II (Table 6)
# Format: in vivo
# Settings: post-emergence, 336 h, CYPSS, 140 g ai/ha, 14 days after application, read-out: Visual Growth Reduction (%) 14 Days After Application CYPSS
# In short: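 Visual injury ratings (0 = no injury, 100 = complete kill) taken 14 days after treatment, relative to untreated controls. Compounds, in an acetone/DMSO aqueous carrier with crop oil and surfactant, were applied by track sprayer at 187 L/ha, in a twofold dilution series from the top rate, to plants at the first to second true-leaf stage.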
row,SMILES,pest or weed control at 140 g/ha
1,CCc1c(-c2cc(N)c(Cl)c(C(=O)O)n2)ccc(Cl)c1F [Compound 86],0 to 29%

# Same assay, conditions: post-emergence, 336 h, DIGSA: crabgrass (Digitaria sanguinalis), 70 g ai/ha, 14 days after application, read-out: Visual Growth Reduction (%) 14 Days After Application DIGSA
row,SMILES,pest or weed control at 70 g/ha
1,CCc1c(-c2cc(N)c(Cl)c(C(=O)O)n2)ccc(Cl)c1F [Compound 86],0 to 29%

# Same assay, conditions: post-emergence, 336 h, DIGSA: crabgrass (Digitaria sanguinalis), 140 g ai/ha, 14 days after application, read-out: Visual Growth Reduction (%) 14 Days After Application DIGSA
row,SMILES,pest or weed control at 140 g/ha
1,CCc1c(-c2cc(N)c(Cl)c(C(=O)O)n2)ccc(Cl)c1F [Compound 86],0 to 29%

# Same assay, conditions: post-emergence, 336 h, ECHSS, 70 g ai/ha, 14 days after application, read-out: Visual Growth Reduction (%) 14 Days After Application ECHSS
row,SMILES,pest or weed control at 70 g/ha
1,CCc1c(-c2cc(N)c(Cl)c(C(=O)O)n2)ccc(Cl)c1F [Compound 86],0 to 29%

# Same assay, conditions: post-emergence, 336 h, ECHSS, 140 g ai/ha, 14 days after application, read-out: Visual Growth Reduction (%) 14 Days After Application ECHSS
row,SMILES,pest or weed control at 140 g/ha
1,CCc1c(-c2cc(N)c(Cl)c(C(=O)O)n2)ccc(Cl)c1F [Compound 86],0 to 29%

# Same assay, conditions: post-emergence, 336 h, ORYSS (crop), 70 g ai/ha, 14 days after application, read-out: Visual Growth Reduction (%) 14 Days After Application ORYSS
row,SMILES,pest or weed control at 70 g/ha
1,CCc1c(-c2cc(N)c(Cl)c(C(=O)O)n2)ccc(Cl)c1F [Compound 86],0 to 29%

# Same assay, conditions: post-emergence, 336 h, ORYSS (crop), 140 g ai/ha, 14 days after application, read-out: Visual Growth Reduction (%) 14 Days After Application ORYSS
row,SMILES,pest or weed control at 140 g/ha
1,CCc1c(-c2cc(N)c(Cl)c(C(=O)O)n2)ccc(Cl)c1F [Compound 86],0 to 29%

# Same assay, conditions: post-emergence, 336 h, SETFA: giant foxtail (Setaria faberi), 70 g ai/ha, 14 days after application, read-out: Visual Growth Reduction (%) 14 Days After Application SETFA
row,SMILES,pest or weed control at 70 g/ha
1,CCc1c(-c2cc(N)c(Cl)c(C(=O)O)n2)ccc(Cl)c1F [Compound 86],0 to 29%

# Same assay, conditions: post-emergence, 336 h, SETFA: giant foxtail (Setaria faberi), 140 g ai/ha, 14 days after application, read-out: Visual Growth Reduction (%) 14 Days After Application SETFA
row,SMILES,pest or weed control at 140 g/ha
1,CCc1c(-c2cc(N)c(Cl)c(C(=O)O)n2)ccc(Cl)c1F [Compound 86],0 to 29%

# Same assay, conditions: post-emergence, 336 h, SORVU: grain sorghum (Sorghum vulgare), 70 g ai/ha, 14 days after application, read-out: Visual Growth Reduction (%) 14 Days After Application SORVU
row,SMILES,pest or weed control at 70 g/ha
1,CCc1c(-c2cc(N)c(Cl)c(C(=O)O)n2)ccc(Cl)c1F [Compound 86],0 to 29%

# Same assay, conditions: post-emergence, 336 h, SORVU: grain sorghum (Sorghum vulgare), 140 g ai/ha, 14 days after application, read-out: Visual Growth Reduction (%) 14 Days After Application SORVU
row,SMILES,pest or weed control at 140 g/ha
1,CCc1c(-c2cc(N)c(Cl)c(C(=O)O)n2)ccc(Cl)c1F [Compound 86],0 to 29%

# Same assay, conditions: post-emergence, 336 h, TRZSS (crop), 70 g ai/ha, 14 days after application, read-out: Visual Growth Reduction (%) 14 Days After Application TRZSS
row,SMILES,pest or weed control at 70 g/ha
1,CCc1c(-c2cc(N)c(Cl)c(C(=O)O)n2)ccc(Cl)c1F [Compound 86],0 to 29%

# Same assay, conditions: post-emergence, 336 h, TRZSS (crop), 140 g ai/ha, 14 days after application, read-out: Visual Growth Reduction (%) 14 Days After Application TRZSS
row,SMILES,pest or weed control at 140 g/ha
1,CCc1c(-c2cc(N)c(Cl)c(C(=O)O)n2)ccc(Cl)c1F [Compound 86],0 to 29%

# Same assay, conditions: post-emergence, 336 h, ZEAMX: maize, corn (Zea mays), 70 g ai/ha, 14 days after application, read-out: Visual Growth Reduction (%) 14 Days After Application ZEAMX
row,SMILES,pest or weed control at 70 g/ha
1,CCc1c(-c2cc(N)c(Cl)c(C(=O)O)n2)ccc(Cl)c1F [Compound 86],0 to 29%

# Same assay, conditions: post-emergence, 336 h, ZEAMX: maize, corn (Zea mays), 140 g ai/ha, 14 days after application, read-out: Visual Growth Reduction (%) 14 Days After Application ZEAMX
row,SMILES,pest or weed control at 140 g/ha
1,CCc1c(-c2cc(N)c(Cl)c(C(=O)O)n2)ccc(Cl)c1F [Compound 86],0 to 29%

# System: not given
# Test: not given
# Settings: not given
row,melting point,SMILES
1,144 to 146 °C,CCc1c(-c2cc(N)c(Cl)c(C(=O)O)n2)ccc(Cl)c1F [Compound 86]
